Measured values reported in ChEMBL document CHEMBL3885881, “DrugMatrix”.

Species on record: Rattus norvegicus
Assay: DrugMatrix - Regimen: Daily Repeat
Format: toxicity, organism-based, Sprague-Dawley
Set-up: regimen Daily Repeat, gender Male, age 6-8 weeks
Conditions: in vivo, po, route oral GAVAGE, vehicle .5 % CMC; for ABSOLUTE BASOPHIL / ABSOLUTE EOSINOPHIL / ABSOLUTE LYMPHOCYTE / ABSOLUTE MONOCYTE / ABSOLUTE SEGMENTED NEUTROPHIL / BASOPHIL / EOSINOPHIL / ERYTHROCYTE COUNT / HEMATOCRIT / HEMOGLOBIN / LEUKOCYTE COUNT / LYMPHOCYTE / MEAN CORPUSCULAR HEMOGLOBIN / MEAN CORPUSCULAR HEMOGLOBIN CONCENTRATION / MEAN CORPUSCULAR VOLUME / MONOCYTE / NEUTROPHIL / NUCLEATED RED BLOOD CELLS / PLATELET COUNT: tissue Blood; for ALANINE AMINOTRANSFERASE / ALBUMIN / ALKALINE PHOSPHATASE / ASPARTATE AMINOTRANSFERASE / BLOOD UREA NITROGEN / CARBON DIOXIDE / CHLORIDE / CHOLESTEROL / CREATINE PHOSPHOKINASE / CREATININE / GLUCOSE / LIPASE / PHOSPHORUS / POTASSIUM / SODIUM / TOTAL BILIRUBIN / TOTAL PROTEIN / URIC ACID: tissue Plasma
[1] = 0.3 mg/kg, 72 h, dose level High, time 3 day
[2] = 0.3 mg/kg, 120 h, dose level High, time 5 day
[3] = […], 72 h, dose 0.014 mg/Kg, dose level Low, time 3 day
[4] = […], 120 h, dose 0.014 mg/Kg, dose level Low, time 5 day

In the case of `COc1cc2c(c3oc(=O)c4c(c13)CCC4=O)[C@@H]1C=CO[C@@H]1O2` [AFLATOXIN], the “ABSOLUTE BASOPHIL” value [1] is reported as 0 CELLS/uL, the “ABSOLUTE EOSINOPHIL” value [1] is reported as 214.67 CELLS/uL and the “ABSOLUTE LYMPHOCYTE” value [1] is reported as 14943 CELLS/uL. The “ABSOLUTE MONOCYTE” value [1] was 279 CELLS/uL, the “ABSOLUTE SEGMENTED NEUTROPHIL” value [1] was 1230 CELLS/uL and the BASOPHIL [1] was 0%. For the same molecule, the EOSINOPHIL [1] was 1.33%, the “ERYTHROCYTE COUNT” value [1] was 5.62 x10E6/uL and the HEMATOCRIT [1] was 35.63%. For the same molecule, the HEMOGLOBIN [1] was 13.67 G/DL, the “LEUKOCYTE COUNT” value [1] was 16.67 x10E3/uL and the LYMPHOCYTE [1] was 89.67%. For the same molecule, the “MEAN CORPUSCULAR HEMOGLOBIN” value [1] was 24.33 pg, the “MEAN CORPUSCULAR HEMOGLOBIN CONCENTRATION” value [1] was 38.33 G/DL and the “MEAN CORPUSCULAR VOLUME” value [1] was 63.4 fL. The MONOCYTE [1] was 1.67%, the NEUTROPHIL [1] was 7.33% and the “NUCLEATED RED BLOOD CELLS” value [1] was 0.33 /100WBC. The “PLATELET COUNT” value [1] was 1408.33 x10E3/uL, the “ALANINE AMINOTRANSFERASE” value [1] was 50 u/L and the ALBUMIN [1] was 4.07 G/DL. The “ALKALINE PHOSPHATASE” value [1] was 424 u/L, the “ASPARTATE AMINOTRANSFERASE” value [1] was 109.33 u/L and the “BLOOD UREA NITROGEN” value [1] was 15.67 mg/dL. For the same molecule, the “CARBON DIOXIDE” value [1] was 24.33 mmol/L, the CHLORIDE [1] was 104 MEQ/L and the CHOLESTEROL [1] was 59.67 mg/dL. The “CREATINE PHOSPHOKINASE” value [1] was 568.33 u/L, the CREATININE [1] was 0.14 mg/dL and the GLUCOSE [1] was 152.67 mg/dL. For the same molecule, the LIPASE [1] was 8.67 u/L, the PHOSPHORUS [1] was 13 mg/dL and the POTASSIUM [1] was 6.95 MEQ/L. For the same molecule, the SODIUM [1] was 144.7 MEQ/L, the “TOTAL BILIRUBIN” value [1] was 0.23 mg/dL and the “TOTAL PROTEIN” value [1] was 5.27 G/DL. For the same molecule, the “URIC ACID” value [1] was 1.73 mg/dL, the “ABSOLUTE BASOPHIL” value [2] was 0 CELLS/uL and the “ABSOLUTE EOSINOPHIL” value [2] was 83.33 CELLS/uL. The “ABSOLUTE LYMPHOCYTE” value [2] was 13811.33 CELLS/uL, the “ABSOLUTE MONOCYTE” value [2] was 454 CELLS/uL and the “ABSOLUTE SEGMENTED NEUTROPHIL” value [2] was 784.67 CELLS/uL. The BASOPHIL [2] was 0%, the EOSINOPHIL [2] was 0.67% and the “ERYTHROCYTE COUNT” value [2] was 5.95 x10E6/uL. For the same molecule, the HEMATOCRIT [2] was 36.77%, the HEMOGLOBIN [2] was 14.07 G/DL and the “LEUKOCYTE COUNT” value [2] was 15.13 x10E3/uL. The LYMPHOCYTE [2] was 91%, the “MEAN CORPUSCULAR HEMOGLOBIN” value [2] was 23.63 pg and the “MEAN CORPUSCULAR HEMOGLOBIN CONCENTRATION” value [2] was 38.23 G/DL. The “MEAN CORPUSCULAR VOLUME” value [2] was 61.8 fL, the MONOCYTE [2] was 3% and the NEUTROPHIL [2] was 5.33%. For the same molecule, the “NUCLEATED RED BLOOD CELLS” value [2] was 0 /100WBC, the “PLATELET COUNT” value [2] was 1425.67 x10E3/uL and the “ALANINE AMINOTRANSFERASE” value [2] was 64.67 u/L. For the same molecule, the ALBUMIN [2] was 4.1 G/DL, the “ALKALINE PHOSPHATASE” value [2] was 290.33 u/L and the “ASPARTATE AMINOTRANSFERASE” value [2] was 102.33 u/L. For the same molecule, the “BLOOD UREA NITROGEN” value [2] was 17.33 mg/dL, the “CARBON DIOXIDE” value [2] was 27 mmol/L and the CHLORIDE [2] was 105.5 MEQ/L. The CHOLESTEROL [2] was 48 mg/dL, the “CREATINE PHOSPHOKINASE” value [2] was 345.67 u/L and the CREATININE [2] was 0.19 mg/dL. The GLUCOSE [2] was 158.67 mg/dL, the LIPASE [2] was 9 u/L and the PHOSPHORUS [2] was 12.27 mg/dL. For the same molecule, the POTASSIUM [2] was 5.92 MEQ/L, the SODIUM [2] was 147.5 MEQ/L and the “TOTAL BILIRUBIN” value [2] was 0.13 mg/dL. The “TOTAL PROTEIN” value [2] was 5.53 G/DL, the “URIC ACID” value [2] was 1.93 mg/dL and the “ABSOLUTE BASOPHIL” value [3] was 0 CELLS/uL. The “ABSOLUTE EOSINOPHIL” value [3] was 94 CELLS/uL, the “ABSOLUTE LYMPHOCYTE” value [3] was 13843.33 CELLS/uL and the “ABSOLUTE MONOCYTE” value [3] was 261.67 CELLS/uL. For the same molecule, the “ABSOLUTE SEGMENTED NEUTROPHIL” value [3] was 1234.33 CELLS/uL, the BASOPHIL [3] was 0% and the EOSINOPHIL [3] was 0.67%. The “ERYTHROCYTE COUNT” value [3] was 5.21 x10E6/uL, the HEMATOCRIT [3] was 33% and the HEMOGLOBIN [3] was 12.47 G/DL. For the same molecule, the “LEUKOCYTE COUNT” value [3] was 15.43 x10E3/uL, the LYMPHOCYTE [3] was 89.67% and the “MEAN CORPUSCULAR HEMOGLOBIN” value [3] was 23.93 pg. For the same molecule, the “MEAN CORPUSCULAR HEMOGLOBIN CONCENTRATION” value [3] was 37.8 G/DL, the “MEAN CORPUSCULAR VOLUME” value [3] was 63.23 fL and the MONOCYTE [3] was 1.67%. The NEUTROPHIL [3] was 8%, the “NUCLEATED RED BLOOD CELLS” value [3] was 0 /100WBC and the “PLATELET COUNT” value [3] was 1257 x10E3/uL. The “ALANINE AMINOTRANSFERASE” value [3] was 47.67 u/L, the ALBUMIN [3] was 4.1 G/DL and the “ALKALINE PHOSPHATASE” value [3] was 302.67 u/L. For the same molecule, the “ASPARTATE AMINOTRANSFERASE” value [3] was 99 u/L, the “BLOOD UREA NITROGEN” value [3] was 16.33 mg/dL and the “CARBON DIOXIDE” value [3] was 25.33 mmol/L. For the same molecule, the CHLORIDE [3] was 103.33 MEQ/L, the CHOLESTEROL [3] was 64.67 mg/dL and the “CREATINE PHOSPHOKINASE” value [3] was 408 u/L. It also gave a CREATININE [3] of 0.21 mg/dL, a GLUCOSE [3] of 142.33 mg/dL and an LIPASE [3] of 9 u/L. It also gave a PHOSPHORUS [3] of 12.17 mg/dL, a POTASSIUM [3] of 6.42 MEQ/L and an SODIUM [3] of 143.57 MEQ/L. For the same molecule, the “TOTAL BILIRUBIN” value [3] was 0.2 mg/dL, the “TOTAL PROTEIN” value [3] was 5.47 G/DL and the “URIC ACID” value [3] was 1.47 mg/dL. The “ABSOLUTE BASOPHIL” value [4] was 0 CELLS/uL, the “ABSOLUTE EOSINOPHIL” value [4] was 37.67 CELLS/uL and the “ABSOLUTE LYMPHOCYTE” value [4] was 14048 CELLS/uL. The “ABSOLUTE MONOCYTE” value [4] was 191.67 CELLS/uL, the “ABSOLUTE SEGMENTED NEUTROPHIL” value [4] was 1122.67 CELLS/uL and the BASOPHIL [4] was 0%. For the same molecule, the EOSINOPHIL [4] was 0.33%, the “ERYTHROCYTE COUNT” value [4] was 5.76 x10E6/uL and the HEMATOCRIT [4] was 35.83%. The HEMOGLOBIN [4] was 13.37 G/DL, the “LEUKOCYTE COUNT” value [4] was 15.4 x10E3/uL and the LYMPHOCYTE [4] was 91%. The “MEAN CORPUSCULAR HEMOGLOBIN” value [4] was 23.2 pg, the “MEAN CORPUSCULAR HEMOGLOBIN CONCENTRATION” value [4] was 37.3 G/DL and the “MEAN CORPUSCULAR VOLUME” value [4] was 62.2 fL. The MONOCYTE [4] was 1.33%, the NEUTROPHIL [4] was 7.33% and the “NUCLEATED RED BLOOD CELLS” value [4] was 1.33 /100WBC. The “PLATELET COUNT” value [4] was 1353 x10E3/uL, the “ALANINE AMINOTRANSFERASE” value [4] was 48.33 u/L and the ALBUMIN [4] was 4.3 G/DL. The “ALKALINE PHOSPHATASE” value [4] was 352.33 u/L, the “ASPARTATE AMINOTRANSFERASE” value [4] was 90.33 u/L and the “BLOOD UREA NITROGEN” value [4] was 19.67 mg/dL. The “CARBON DIOXIDE” value [4] was 26.33 mmol/L, the CHLORIDE [4] was 105.67 MEQ/L and the CHOLESTEROL [4] was 63.33 mg/dL. The “CREATINE PHOSPHOKINASE” value [4] was 486.67 u/L, the CREATININE [4] was 0.21 mg/dL and the GLUCOSE [4] was 164.67 mg/dL. It also gave an LIPASE [4] of 8.33 u/L, a PHOSPHORUS [4] of 12.6 mg/dL and a POTASSIUM [4] of 6.34 MEQ/L. The SODIUM [4] was 146.9 MEQ/L, the “TOTAL BILIRUBIN” value [4] was 0.2 mg/dL and the “TOTAL PROTEIN” value [4] was 6.03 G/DL. For the same molecule, the “URIC ACID” value [4] was 1.93 mg/dL.
